Drawing on ChEMBL document CHEMBL1201862, “PubChem BioAssay data set” (2004), this text covers AC50, EC50 and IC50 for 5 compounds.

Active and inactive are the calls of the source.

A short description of assay [1]: Luminescence Cell-Based Dose Retest to Confirm Inhibitors of Cancer Stem Cells. [Related pubchem assays (depositor defined):AID2717, AID2721]. The format is functional. As to conditions: Homo sapiens.
Assay [2] has as its target Ion channel NompC (Danio rerio, UniProt Q7T1G6). As to the kind of experiment: Fluorescence counterscreen assay for TRPML3 agonists: dose response cell-based high-throughput screening assay to identify agonists of the transient receptor potential channel N1 (TRPN1). [Related pubchem assays: 1526, 1424, 1448 ]. The class given is functional. For orientation: The purpose of a counterscreen is to sort out artefacts and off-target activity.

Assay [3] deals with T1, Mucolipin-3 (Homo sapiens, UniProt Q8TDD5).
T1 sequence (Q8TDD5 whole entry): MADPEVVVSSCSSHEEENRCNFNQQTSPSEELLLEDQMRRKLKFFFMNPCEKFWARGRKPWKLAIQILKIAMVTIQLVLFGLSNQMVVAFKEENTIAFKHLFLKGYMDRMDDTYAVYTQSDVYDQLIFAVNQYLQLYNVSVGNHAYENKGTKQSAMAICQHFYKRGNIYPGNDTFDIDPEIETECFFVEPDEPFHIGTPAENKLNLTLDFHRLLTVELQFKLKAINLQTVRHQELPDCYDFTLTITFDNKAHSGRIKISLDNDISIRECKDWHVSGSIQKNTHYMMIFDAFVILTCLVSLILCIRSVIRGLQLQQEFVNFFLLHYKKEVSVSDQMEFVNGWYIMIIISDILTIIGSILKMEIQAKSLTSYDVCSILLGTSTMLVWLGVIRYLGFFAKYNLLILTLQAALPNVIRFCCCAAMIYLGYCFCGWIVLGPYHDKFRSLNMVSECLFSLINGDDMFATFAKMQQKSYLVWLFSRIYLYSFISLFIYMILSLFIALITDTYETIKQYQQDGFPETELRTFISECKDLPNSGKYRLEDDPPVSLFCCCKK
As to the kind of experiment: Dose response cell-based high-throughput screening assay for agonists of the transient receptor potential channel ML3 (TRPML3). [Related pubchem assays: 1526, 1424, 1448 ]. The class given is functional.

Assay [4] addresses T2, Bcl-2-related protein A1 (Mus musculus, UniProt Q07440).
T2 sequence (Q07440 whole entry): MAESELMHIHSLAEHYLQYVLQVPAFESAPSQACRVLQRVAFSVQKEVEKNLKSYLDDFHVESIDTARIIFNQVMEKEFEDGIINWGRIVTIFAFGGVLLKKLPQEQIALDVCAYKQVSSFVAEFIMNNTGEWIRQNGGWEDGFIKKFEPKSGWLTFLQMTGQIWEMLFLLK
As to the kind of experiment: Bfl-1 inhibitors blocking BH3 peptide binding, confirmation, biochemical, TR-FRET, mouse Bfl-1 (AID 621).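 Further: TR-FRET binding of GST-Bfl-1 to FITC-labelled Bid peptide via terbium antibody.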

Assay [5] addresses T2, Bcl-2-related protein A1. As to the kind of experiment: Bfl-1 binding inhibitors, SAR follow-up, biochemical, fluorescence polarization (AID 1070).
For assay [6], the target named is T3, Short transient receptor potential channel 4 (Mus musculus, UniProt Q9QUQ5).
T3 sequence (Q9QUQ5 whole entry): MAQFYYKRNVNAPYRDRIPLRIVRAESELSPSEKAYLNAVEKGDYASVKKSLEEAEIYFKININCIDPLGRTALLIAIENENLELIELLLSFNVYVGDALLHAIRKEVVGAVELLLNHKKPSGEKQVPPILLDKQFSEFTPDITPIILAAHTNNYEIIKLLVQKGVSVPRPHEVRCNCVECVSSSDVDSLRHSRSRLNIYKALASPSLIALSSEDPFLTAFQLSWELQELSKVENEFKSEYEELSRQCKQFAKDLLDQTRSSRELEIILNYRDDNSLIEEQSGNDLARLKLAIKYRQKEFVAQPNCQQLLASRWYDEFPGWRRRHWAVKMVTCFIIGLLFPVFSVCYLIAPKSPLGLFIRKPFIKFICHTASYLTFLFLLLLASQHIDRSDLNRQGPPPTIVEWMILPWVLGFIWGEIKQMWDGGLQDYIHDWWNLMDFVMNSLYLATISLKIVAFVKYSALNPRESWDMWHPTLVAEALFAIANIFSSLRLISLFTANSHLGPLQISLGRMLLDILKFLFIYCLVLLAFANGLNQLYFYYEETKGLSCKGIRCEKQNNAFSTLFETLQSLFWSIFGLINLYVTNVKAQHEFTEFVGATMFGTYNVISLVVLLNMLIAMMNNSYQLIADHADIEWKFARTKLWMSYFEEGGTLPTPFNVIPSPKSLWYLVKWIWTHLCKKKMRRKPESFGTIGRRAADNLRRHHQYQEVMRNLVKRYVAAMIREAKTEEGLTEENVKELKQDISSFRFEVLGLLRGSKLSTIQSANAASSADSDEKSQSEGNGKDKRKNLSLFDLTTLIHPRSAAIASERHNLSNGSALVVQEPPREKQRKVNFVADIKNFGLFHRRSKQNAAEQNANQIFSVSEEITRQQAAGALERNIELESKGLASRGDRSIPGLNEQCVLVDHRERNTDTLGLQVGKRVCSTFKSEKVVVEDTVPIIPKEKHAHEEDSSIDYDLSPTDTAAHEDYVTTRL
As to the kind of experiment: mouse TRPC4 channel inhibitors, dose response, cell-based, HEK293 TRPC4/mu-opioid, Fluo-4 calcium (AID 434942).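 Further: potency of inhibitors blocking the TRPC4 calcium response.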 The class given is functional.

Assay [7] deals with Voltage-dependent T-type calcium channel subunit alpha-1H (Homo sapiens, UniProt O95180). The format is functional.
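Wherever AC50 is given: cells exposed to compound for roughly 70 hours or longer before luminescence read.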

Chain of Ion channel NompC (Q7T1G6 whole entry): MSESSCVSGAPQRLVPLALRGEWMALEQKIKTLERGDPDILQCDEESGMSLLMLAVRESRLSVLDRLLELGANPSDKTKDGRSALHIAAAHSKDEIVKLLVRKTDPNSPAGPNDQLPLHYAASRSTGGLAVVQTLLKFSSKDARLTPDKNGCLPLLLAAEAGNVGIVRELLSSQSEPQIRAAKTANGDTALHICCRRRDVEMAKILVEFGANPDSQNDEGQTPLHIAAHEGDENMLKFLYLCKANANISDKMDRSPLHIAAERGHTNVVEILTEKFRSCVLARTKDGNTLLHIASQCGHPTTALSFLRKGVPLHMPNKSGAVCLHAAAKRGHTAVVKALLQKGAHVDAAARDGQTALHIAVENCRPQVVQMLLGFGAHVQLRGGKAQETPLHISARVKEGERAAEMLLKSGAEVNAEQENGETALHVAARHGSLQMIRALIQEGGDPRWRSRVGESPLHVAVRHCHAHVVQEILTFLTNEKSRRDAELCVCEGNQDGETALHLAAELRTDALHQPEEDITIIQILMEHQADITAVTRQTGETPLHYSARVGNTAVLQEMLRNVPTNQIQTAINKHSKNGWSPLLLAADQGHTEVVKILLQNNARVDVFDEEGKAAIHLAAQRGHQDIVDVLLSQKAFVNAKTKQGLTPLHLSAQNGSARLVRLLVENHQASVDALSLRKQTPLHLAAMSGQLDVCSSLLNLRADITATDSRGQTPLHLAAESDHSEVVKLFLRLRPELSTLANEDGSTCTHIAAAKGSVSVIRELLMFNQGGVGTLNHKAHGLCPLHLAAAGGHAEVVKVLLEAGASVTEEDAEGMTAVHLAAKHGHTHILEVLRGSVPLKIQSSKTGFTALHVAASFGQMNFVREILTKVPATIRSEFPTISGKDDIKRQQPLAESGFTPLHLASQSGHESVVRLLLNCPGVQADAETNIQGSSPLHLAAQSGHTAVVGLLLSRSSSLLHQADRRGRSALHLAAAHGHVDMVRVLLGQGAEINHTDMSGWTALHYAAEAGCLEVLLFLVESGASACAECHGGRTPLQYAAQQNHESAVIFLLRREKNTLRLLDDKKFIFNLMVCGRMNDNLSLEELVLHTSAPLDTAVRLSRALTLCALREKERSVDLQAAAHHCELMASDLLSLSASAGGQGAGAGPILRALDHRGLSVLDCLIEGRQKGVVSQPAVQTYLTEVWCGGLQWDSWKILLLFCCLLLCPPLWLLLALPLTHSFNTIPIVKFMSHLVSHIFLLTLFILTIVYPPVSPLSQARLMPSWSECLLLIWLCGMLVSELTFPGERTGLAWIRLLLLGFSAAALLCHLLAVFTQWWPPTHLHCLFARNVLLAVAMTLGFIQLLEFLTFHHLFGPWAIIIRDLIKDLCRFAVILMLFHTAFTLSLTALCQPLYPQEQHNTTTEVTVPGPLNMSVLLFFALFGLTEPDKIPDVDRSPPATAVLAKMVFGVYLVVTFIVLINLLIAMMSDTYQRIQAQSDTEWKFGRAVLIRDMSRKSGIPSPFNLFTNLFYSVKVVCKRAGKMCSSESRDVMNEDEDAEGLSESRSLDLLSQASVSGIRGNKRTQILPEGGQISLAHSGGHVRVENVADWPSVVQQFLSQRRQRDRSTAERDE
Chain of Voltage-dependent T-type calcium channel subunit alpha-1H (O95180 whole entry): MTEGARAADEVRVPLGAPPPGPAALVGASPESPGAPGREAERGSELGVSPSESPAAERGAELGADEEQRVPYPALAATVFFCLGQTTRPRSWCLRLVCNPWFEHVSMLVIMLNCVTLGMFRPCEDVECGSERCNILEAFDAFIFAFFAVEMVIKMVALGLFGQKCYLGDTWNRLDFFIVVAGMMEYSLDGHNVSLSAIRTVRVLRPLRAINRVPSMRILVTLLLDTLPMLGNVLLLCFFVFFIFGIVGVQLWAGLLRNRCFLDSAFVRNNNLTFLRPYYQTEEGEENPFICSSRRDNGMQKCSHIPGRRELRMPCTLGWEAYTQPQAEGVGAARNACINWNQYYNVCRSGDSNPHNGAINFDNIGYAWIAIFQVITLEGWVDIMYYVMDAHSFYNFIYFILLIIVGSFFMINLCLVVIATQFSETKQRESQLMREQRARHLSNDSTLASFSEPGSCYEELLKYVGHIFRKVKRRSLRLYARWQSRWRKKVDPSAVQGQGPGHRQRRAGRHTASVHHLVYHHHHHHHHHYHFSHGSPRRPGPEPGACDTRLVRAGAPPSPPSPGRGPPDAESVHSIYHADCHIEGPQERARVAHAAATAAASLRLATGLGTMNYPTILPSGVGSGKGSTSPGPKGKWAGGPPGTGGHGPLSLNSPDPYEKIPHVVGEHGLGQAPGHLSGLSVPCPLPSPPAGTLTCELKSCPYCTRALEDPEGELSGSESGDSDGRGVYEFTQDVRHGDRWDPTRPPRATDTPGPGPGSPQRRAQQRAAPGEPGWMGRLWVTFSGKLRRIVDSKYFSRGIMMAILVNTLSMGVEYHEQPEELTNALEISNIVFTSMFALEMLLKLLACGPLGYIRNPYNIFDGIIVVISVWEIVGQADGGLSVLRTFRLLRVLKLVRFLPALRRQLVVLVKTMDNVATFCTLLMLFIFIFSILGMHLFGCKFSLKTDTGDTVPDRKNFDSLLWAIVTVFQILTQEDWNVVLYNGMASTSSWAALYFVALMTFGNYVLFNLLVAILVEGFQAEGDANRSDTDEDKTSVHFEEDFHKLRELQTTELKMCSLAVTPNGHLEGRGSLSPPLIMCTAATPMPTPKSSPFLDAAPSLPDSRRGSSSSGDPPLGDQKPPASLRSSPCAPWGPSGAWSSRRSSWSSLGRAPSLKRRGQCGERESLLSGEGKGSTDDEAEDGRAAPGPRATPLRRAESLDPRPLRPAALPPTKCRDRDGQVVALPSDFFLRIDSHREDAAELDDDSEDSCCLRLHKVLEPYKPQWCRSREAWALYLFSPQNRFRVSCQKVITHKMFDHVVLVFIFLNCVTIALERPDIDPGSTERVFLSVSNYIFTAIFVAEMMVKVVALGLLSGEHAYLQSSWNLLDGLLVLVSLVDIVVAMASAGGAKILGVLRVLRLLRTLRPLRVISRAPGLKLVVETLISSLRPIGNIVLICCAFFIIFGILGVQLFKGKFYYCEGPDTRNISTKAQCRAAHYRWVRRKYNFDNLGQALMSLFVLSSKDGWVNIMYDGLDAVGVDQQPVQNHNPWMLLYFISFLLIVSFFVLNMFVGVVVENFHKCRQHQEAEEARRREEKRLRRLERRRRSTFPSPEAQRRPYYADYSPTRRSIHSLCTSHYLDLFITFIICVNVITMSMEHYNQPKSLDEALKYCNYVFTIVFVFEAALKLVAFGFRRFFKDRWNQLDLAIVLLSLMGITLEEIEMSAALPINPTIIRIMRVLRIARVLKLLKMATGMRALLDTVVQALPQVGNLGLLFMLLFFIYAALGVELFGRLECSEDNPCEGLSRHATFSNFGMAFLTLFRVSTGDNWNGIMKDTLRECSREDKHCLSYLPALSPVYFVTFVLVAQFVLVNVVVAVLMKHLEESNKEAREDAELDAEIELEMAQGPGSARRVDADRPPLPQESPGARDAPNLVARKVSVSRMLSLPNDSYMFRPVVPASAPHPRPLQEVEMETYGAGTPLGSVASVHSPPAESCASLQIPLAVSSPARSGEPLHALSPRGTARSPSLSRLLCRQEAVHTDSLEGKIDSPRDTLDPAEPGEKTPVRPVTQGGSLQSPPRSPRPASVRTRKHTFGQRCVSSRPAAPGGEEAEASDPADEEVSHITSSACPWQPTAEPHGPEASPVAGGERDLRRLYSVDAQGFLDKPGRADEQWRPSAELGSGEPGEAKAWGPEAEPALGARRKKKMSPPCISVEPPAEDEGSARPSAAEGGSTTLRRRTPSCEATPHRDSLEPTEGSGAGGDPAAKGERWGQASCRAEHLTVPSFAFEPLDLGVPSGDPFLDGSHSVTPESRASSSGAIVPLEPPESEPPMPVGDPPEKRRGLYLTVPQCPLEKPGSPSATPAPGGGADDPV

Regarding `O=C1C2C3C=CC(C3)C2C(=O)N1c1ccc(N2CCN(c3ccccn3)CC2)c([N+](=O)[O-])c1` (stereo not given), the half-maximal activity concentration (AC50) (commonly the midpoint of the concentration-response curve, whichever way the signal moves) in assay [1] was 0.619 µM (active). The EC50 in assay [2] and in assay [3] was > 29.9 µM (not active) in each case.
As for `Cc1cccc(N2CCN(C3=C(Cl)C(=O)N(c4ccc(Cl)c(Cl)c4)C3=O)CC2)c1`, the IC50 in assay [4] and in assay [5] was > 100 µM (not active) throughout.
In the case of `COC(=O)c1cnc(N2CCCN(S(=O)(=O)c3ccccc3)CC2)nc1C(F)(F)F`, the EC50 in assay [2] and in assay [3] was > 29.9 µM (not active) throughout.
In the case of `CN(C)CCCN(C(=O)c1ccc(S(=O)(=O)N2CCCC2)cc1)c1nc2c(F)cc(F)cc2s1`, the EC50 – broadly, the concentration needed to bring the measured effect to its halfway point – in assay [6] was 3.76 µM (active).
For `Cc1oc(-c2ccc(Cl)cc2)nc1CN1CCC(C(=O)NCc2cccs2)CC1`, the concentration for a half-maximal effect (EC50) in assay [6] was 1.5 µM (active); in assay [7], 4.32 µM (active).
